For six molecules, Activity, MIC and EC50 results are on record in ChEMBL document CHEMBL5579889, “Structure-Based Design and Development of Phosphine Oxides as a Novel Chemotype for Antibiotics that Dysregulate Bacterial ClpP Proteases” (J Med Chem, 2024).

For experiment [1], the target named is T1, ATP-dependent Clp protease proteolytic subunit (Staphylococcus aureus (strain NCTC 8325)) (UniProt Q2G036).
T1 sequence (whole entry): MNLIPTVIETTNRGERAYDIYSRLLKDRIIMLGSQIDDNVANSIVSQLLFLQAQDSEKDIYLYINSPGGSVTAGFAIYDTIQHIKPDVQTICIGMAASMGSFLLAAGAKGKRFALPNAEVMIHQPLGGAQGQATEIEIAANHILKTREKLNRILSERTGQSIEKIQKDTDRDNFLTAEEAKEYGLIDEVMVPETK
The experiment can be described thus: Activation of N-terminal His-tagged recombinant Staphylococcus aureus ClpP expressed in Escherichia coli SG1146(DE3) assessed as degradation of casein-FITC at 100 uM preincubated for 10 mins followed by casein addition measured for over 100 mins by fluorescence based assay. To be noted: time > 110.0 min.

Another experiment has as its system Streptococcus pneumoniae. The experiment can be described thus: Activation of recombinant Streptococcus pneumoniae ClpP extracted from Escherichia coli SG1146(DE3) assessed as degradation of casein-FITC at 100 uM preincubated for 10 mins followed by casein addition measured for over 100 mins by fluorescence based assay. Particulars: time > 110.0 min.
In experiment [2] the target is ATP-dependent Clp protease proteolytic subunit, mitochondrial (Homo sapiens) (UniProt Q16740). The experiment can be described thus: Activation of N-terminal His-tagged recombinant human ClpP expressed in Escherichia coli SG1146(DE3) assessed as degradation of casein-FITC at 100 uM preincubated for 10 mins followed by casein addition measured for over 100 mins by fluorescence based assay. Particulars: time > 110.0 min.

Experiment [3] has as its system Neisseria gonorrhoeae. In words: Antibacterial activity against Neisseria gonorrhoeae FA19 measured after 16 to 18 hrs by OD based assay. To be noted: time 16-18 hrs. The experiment is classed as functional.
Experiment [4] deals with Neisseria meningitidis. In words: Antibacterial activity against Neisseria meningitidis EG329 measured after 16 to 18 hrs by OD based assay. The experiment is classed as functional. To be noted: time 16-18 hrs.
For experiment [5], the system named is Neisseria gonorrhoeae. In words: Antibacterial activity against Neisseria gonorrhoeae WHO G measured after 16 to 18 hrs by OD based assay. The experiment is classed as functional. To be noted: time 16-18 hrs.
For experiment [6], the system named is Neisseria gonorrhoeae. In words: Antibacterial activity against Neisseria gonorrhoeae WHO P measured after 16 to 18 hrs by OD based assay. It counts as functional. Particulars: time 16-18 hrs.
Experiment [7] concerns Neisseria gonorrhoeae. The experiment can be described thus: Antibacterial activity against Neisseria gonorrhoeae WHO N measured after 16 to 18 hrs by OD based assay. It counts as functional. Particulars: time 16-18 hrs.
Experiment [8] deals with Neisseria gonorrhoeae. The experiment can be described thus: Antibacterial activity against Neisseria gonorrhoeae WHO K measured after 16 to 18 hrs by OD based assay. To be noted: time 16-18 hrs. The experiment is classed as functional.
For experiment [9], the system named is Neisseria meningitidis. The experiment can be described thus: Antibacterial activity against Neisseria meningitidis SWZ107 measured after 16 to 18 hrs by OD based assay. It counts as functional. Particulars: time 16-18 hrs.
Experiment [10] relates to Neisseria meningitidis. The experiment can be described thus: Antibacterial activity against Neisseria meningitidis NG144/82 measured after 16 to 18 hrs by OD based assay. It counts as functional. To be noted: time 16-18 hrs.
For experiment [11], the system named is Neisseria gonorrhoeae. In words: Antibacterial activity against Neisseria gonorrhoeae WHO V measured after 16 to 18 hrs by OD based assay. To be noted: time 16-18 hrs. The experiment is classed as functional.
Experiment [12] concerns Neisseria meningitidis. In words: Antibacterial activity against Neisseria meningitidis BZ169 measured after 16 to 18 hrs by OD based assay. The experiment is classed as functional. Particulars: time 16-18 hrs.
The test system of experiment [13] is Neisseria gonorrhoeae. In words: Antibacterial activity against Neisseria gonorrhoeae WHO Y measured after 16 to 18 hrs by OD based assay. It counts as functional. Particulars: time 16-18 hrs.
Experiment [14] relates to Neisseria gonorrhoeae. The experiment can be described thus: Antibacterial activity against Neisseria gonorrhoeae WHO X measured after 16 to 18 hrs by OD based assay. It counts as functional. To be noted: time 16-18 hrs.
The subject of experiment [15] is Neisseria meningitidis. The experiment can be described thus: Antibacterial activity against Neisseria meningitidis NGF26 measured after 16 to 18 hrs by OD based assay. The experiment is classed as functional. To be noted: time 16-18 hrs.
The test system of experiment [16] is Neisseria gonorrhoeae. In words: Antibacterial activity against Neisseria gonorrhoeae WHO Z measured after 16 to 18 hrs by OD based assay. The experiment is classed as functional. Particulars: time 16-18 hrs.
Experiment [17] relates to Neisseria gonorrhoeae. In words: Antibacterial activity against Neisseria gonorrhoeae MS11 measured after 16 to 18 hrs by OD based assay. It counts as functional. Particulars: time 16-18 hrs.
For experiment [18], the system named is Neisseria gonorrhoeae. In words: Antibacterial activity against Neisseria gonorrhoeae WHO L measured after 16 to 18 hrs by OD based assay. The experiment is classed as functional. To be noted: time 16-18 hrs.
Experiment [19] concerns Neisseria meningitidis. The experiment can be described thus: Antibacterial activity against Neisseria meningitidis BZ133 measured after 16 to 18 hrs by OD based assay. It counts as functional. Particulars: time 16-18 hrs.
Experiment [20] deals with Neisseria meningitidis. In words: Antibacterial activity against wild-type Neisseria meningitidis H44/76 measured after 16 to 18 hrs by OD based assay. The experiment is classed as functional. Particulars: time 16-18 hrs.
For experiment [21], the system named is Neisseria meningitidis. In words: Antibacterial activity against Neisseria meningitidis AK50 measured after 16 to 18 hrs by OD based assay. The experiment is classed as functional. Particulars: time 16-18 hrs.
For experiment [22], the system named is Neisseria meningitidis. The experiment can be described thus: Antibacterial activity against Neisseria meningitidis 88/03415 measured after 16 to 18 hrs by OD based assay. It counts as functional. To be noted: time 16-18 hrs.
In experiment [23] the test system is Neisseria meningitidis. In words: Antibacterial activity against Neisseria meningitidis NGPB24 measured after 16 to 18 hrs by OD based assay. To be noted: time 16-18 hrs. It counts as functional.
The test system of experiment [24] is Neisseria meningitidis. In words: Antibacterial activity against Neisseria meningitidis H44/76 harboring deltaclpP measured after 16 to 18 hrs by OD based assay. Particulars: time 16-18 hrs. The experiment is classed as functional.
Experiment [25] has as its system Neisseria gonorrhoeae. The experiment can be described thus: Antibacterial activity against Neisseria gonorrhoeae WHO M measured after 16 to 18 hrs by OD based assay. It counts as functional. To be noted: time 16-18 hrs.
Experiment [26] concerns the target ATP-dependent Clp protease proteolytic subunit (Neisseria gonorrhoeae, UniProt Q5F914). In words: Activation of N-terminal His-tagged recombinant Neisseria gonorrhoeae ClpP expressed in Escherichia coli SG1146(DE3) assessed as degradation of casein-FITC preincubated for 10 mins followed by casein addition measured for over 100 mins by fluorescence based assay.

Experiment [27] has as its target ATP-dependent Clp protease proteolytic subunit (Escherichia coli (strain K12), UniProt P0A6G7). In words: Activation of N-terminal His-tagged recombinant Escherichia coli ClpP expressed in Escherichia coli SG1146(DE3) assessed as degradation of casein-FITC preincubated for 10 mins followed by casein addition measured for over 100 mins by fluorescence based assay.

In brackets after ≈: the same amount, converted by molar mass. Activity calls are given as the source filed them. The rule behind the calls is not given here.

Chain of ATP-dependent Clp protease proteolytic subunit (Escherichia coli (strain K12), UniProt P0A6G7) (P0A6G7 whole entry): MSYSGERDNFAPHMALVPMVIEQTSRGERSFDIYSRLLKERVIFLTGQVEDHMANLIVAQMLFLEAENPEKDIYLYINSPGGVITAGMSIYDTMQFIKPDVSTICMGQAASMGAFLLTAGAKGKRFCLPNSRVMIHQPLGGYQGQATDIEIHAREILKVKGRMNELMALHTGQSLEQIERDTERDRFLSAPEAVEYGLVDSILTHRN
Chain of ATP-dependent Clp protease proteolytic subunit, mitochondrial (Homo sapiens) (Q16740 whole entry): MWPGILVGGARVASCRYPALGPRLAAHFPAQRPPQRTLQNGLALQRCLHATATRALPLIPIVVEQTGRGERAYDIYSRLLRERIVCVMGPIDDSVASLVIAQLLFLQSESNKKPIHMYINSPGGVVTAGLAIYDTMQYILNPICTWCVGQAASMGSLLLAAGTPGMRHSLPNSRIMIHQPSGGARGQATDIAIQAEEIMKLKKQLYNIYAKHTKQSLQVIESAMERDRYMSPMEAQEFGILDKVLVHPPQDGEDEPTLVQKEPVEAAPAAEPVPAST
Chain of ATP-dependent Clp protease proteolytic subunit (Neisseria gonorrhoeae, UniProt Q5F914) (Q5F914 whole entry): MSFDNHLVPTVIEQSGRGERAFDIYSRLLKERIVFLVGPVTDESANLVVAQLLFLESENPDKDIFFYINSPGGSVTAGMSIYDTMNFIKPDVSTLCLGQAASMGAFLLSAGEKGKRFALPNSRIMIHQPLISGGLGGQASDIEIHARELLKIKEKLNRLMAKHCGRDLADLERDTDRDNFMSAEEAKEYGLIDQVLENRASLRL

Turning to `CC(C(=O)NCCSc1ccccc1C(F)(F)F)P(=O)(c1ccccn1)c1ccccn1` (stereo not given), the result (in [1]; in the experiment with Streptococcus pneumoniae; in [2]) was inactive.
Take `CC(C(=O)NCCSc1ccccc1Cl)P(=O)(c1ccccc1)c1ccccc1` (stereo not given): the MIC (in general, the lowest concentration that inhibits growth of the organism) in the experiment with Neisseria gonorrhoeae [3] was 3.1 µM (≈ 1.38 µg/mL); in the experiment on Neisseria meningitidis [4], 1.7 µM (≈ 0.755 µg/mL); in the experiment with Neisseria gonorrhoeae [5] it was 1.6 µM (≈ 0.71 µg/mL); with Neisseria gonorrhoeae [6], 3.1 µM (≈ 1.38 µg/mL); against Neisseria gonorrhoeae [7], 1.6 µM (≈ 0.71 µg/mL); against Neisseria gonorrhoeae [8] it was 1.6 µM (≈ 0.71 µg/mL). Besides, the MIC in the experiment with Neisseria meningitidis [9] was 0.3 µM (≈ 0.133 µg/mL); in the experiment with Neisseria meningitidis [10] it was 0.3 µM (≈ 0.133 µg/mL); in the experiment with Neisseria gonorrhoeae [11], 3.1 µM (≈ 1.38 µg/mL); with Neisseria meningitidis [12], 1 µM (≈ 0.444 µg/mL); in the experiment on Neisseria gonorrhoeae [13], 12.5 µM (≈ 5.55 µg/mL); in the experiment with Neisseria gonorrhoeae [14], 4.7 µM (≈ 2.09 µg/mL). Further, the MIC in the experiment with Neisseria meningitidis [15] amounted to 1.6 µM (≈ 0.71 µg/mL); against Neisseria gonorrhoeae [16], 1.6 µM (≈ 0.71 µg/mL); in the experiment on Neisseria gonorrhoeae [17] it was 3.1 µM (≈ 1.38 µg/mL); with Neisseria gonorrhoeae [18], 3.1 µM (≈ 1.38 µg/mL); against Neisseria meningitidis [19], 2.4 µM (≈ 1.07 µg/mL); in the experiment on Neisseria meningitidis [20], 1 µM (≈ 0.444 µg/mL). Moreover, the MIC in the experiment on Neisseria meningitidis [21] is 4.7 µM (≈ 2.09 µg/mL); in the experiment on Neisseria meningitidis [22], 1.6 µM (≈ 0.71 µg/mL); with Neisseria meningitidis [23], 3.1 µM (≈ 1.38 µg/mL); against Neisseria meningitidis [24] it was above 25 µM; in the experiment with Neisseria gonorrhoeae [25], 1.6 µM (≈ 0.71 µg/mL).
Consider `CC(C)(C(=O)NCCSc1ccccc1C(F)(F)F)P(=O)(c1ccccn1)c1ccccn1`, for which the EC50 in experiment [26] amounted to 5100 nM; in experiment [27] it was 2300 nM. Besides, the result (in experiment [1]; in the experiment with Streptococcus pneumoniae; in [2]) was inactive.
As for `CCCC/C=C/C(=O)N[C@@H](Cc1ccccc1)C(=O)N[C@H]1COC(=O)[C@@H]2CCCN2C(=O)[C@H](C)NC(=O)[C@@H]2CCCCN2C(=O)[C@@H]2CCCN2C1=O`, the outcome (in experiment [1]; with Streptococcus pneumoniae) was inactive.
For `CC(C(=O)NCCSc1ccccc1C(F)(F)F)P(=O)(c1ccc(C(F)(F)F)cn1)c1ccc(C(F)(F)F)cn1` (stereo not given), the EC50 amounted to 2750 nM in [26] and 2050 nM in [27]. For the same molecule, the outcome (in experiment [1]; in the experiment on Streptococcus pneumoniae; in [2]) was inactive.
Take `CC(C)(C(=O)NCCSc1ccccc1Cl)P(=O)(c1ccc(C(F)(F)F)cc1)c1ccc(C(F)(F)F)cc1`: the EC50 in experiment [26] is 1580 nM; in [27], 4770 nM.
